One assay addresses Cbl-b (Homo sapiens (Human), UniProt Q13191). The assay can be described thus: Cbl-b LCK Ub TR-FRET assay (Cbl-b Lck HTRF). Type of assay: biochemical. The method in brief: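 TR-FRET (340 nm excitation, 615/665 nm emission) read after adding HA-ubiquitin–UBE2D2 thioester, anti-HA-D2 and streptavidin-Eu. Beforehand, compounds incubated 60 min with biotinylated Cbl-b, then 90 min with His-LCK and ATP (1 mM in 2× mix); IC50 from 10 concentrations, DMSO high and no-LCK low controls.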
(In TR-FRET formats the signal depends on donor and acceptor labels being close together.)

The target in a further assay is c-Cbl (Homo sapiens (Human), UniProt P22681). The assay can be described thus: C-Cbl LCK Ub TR-FRET assay (c-cbl Lck HTRF). It counts as biochemical. As to conditions: for (fold-selectivity): C-cbl Lck HTRF IC50 relative to Cbl-b Lck HTRF IC50. In a few lines: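 Detection reagents added, brief spin, 20 min RT. IC50 fit normalized to no-LCK (low) and DMSO (high) controls.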
Chain of c-Cbl (P22681 47-435): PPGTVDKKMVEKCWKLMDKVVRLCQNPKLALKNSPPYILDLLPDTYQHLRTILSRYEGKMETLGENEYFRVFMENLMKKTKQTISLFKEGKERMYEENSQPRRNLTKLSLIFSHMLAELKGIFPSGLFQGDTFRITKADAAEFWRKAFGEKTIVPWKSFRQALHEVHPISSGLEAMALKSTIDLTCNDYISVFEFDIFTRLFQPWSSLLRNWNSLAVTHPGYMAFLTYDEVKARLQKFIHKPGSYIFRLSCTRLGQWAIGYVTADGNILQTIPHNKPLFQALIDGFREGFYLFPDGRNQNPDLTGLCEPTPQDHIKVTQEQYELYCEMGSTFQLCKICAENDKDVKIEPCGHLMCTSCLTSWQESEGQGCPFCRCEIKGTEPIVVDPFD

Structures can show the parent of a compound that is named as a salt.

Chain of Cbl-b (Q13191 40-426): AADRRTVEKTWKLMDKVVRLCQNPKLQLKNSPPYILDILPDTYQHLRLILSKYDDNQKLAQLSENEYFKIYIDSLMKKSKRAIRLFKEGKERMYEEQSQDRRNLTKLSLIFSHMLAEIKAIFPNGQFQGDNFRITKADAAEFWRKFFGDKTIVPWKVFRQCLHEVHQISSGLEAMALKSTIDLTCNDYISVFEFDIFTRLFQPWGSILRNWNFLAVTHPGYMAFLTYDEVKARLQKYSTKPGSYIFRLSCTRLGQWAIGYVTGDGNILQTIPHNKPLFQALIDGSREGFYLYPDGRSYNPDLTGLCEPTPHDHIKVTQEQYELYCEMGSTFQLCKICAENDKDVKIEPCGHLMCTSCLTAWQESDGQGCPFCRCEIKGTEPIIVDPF

What is called IC50 is the point on the concentration scale where inhibition reaches its midpoint. Low values mean greater potency in that assay, high ones weaker potency in that assay. For the compound `CN1CCN(Cc2cc3c(c(C(F)(F)F)c2)CN(c2cccc(C4(Cc5nncn5C)CC(F)(F)C4)c2)C3=O)CC1C1CC1` (centres unmarked) [Compound 403, 6-((3-cyclopropyl-4-methylpiperazin-1-yl)methyl)-2-(3-(3,3-difluoro-1-((4-methyl-4H-1,2,4-triazol-3-yl)methyl)cyclobutyl)phenyl)-4-(trifluoromethyl)isoindolin-1-one], the half-maximal inhibitory concentration (IC50) against Cbl-b was 45 nM. For the same compound, on c-Cbl, the IC50 came to 45 nM and the “(fold-selectivity)” value was “(1.0x)”.
In turn, `CC[C@H]1CC[C@@H](c2cc3c(c(C(F)(F)F)c2)CN(c2cccc(C4(Cc5nncn5C)CC(F)(F)C4)c2)C3=O)N1` [Compound 475, 2-(3-(3,3-difluoro-1-((4-methyl-4H-1,2,4-triazol-3-yl)methyl)cyclobutyl)phenyl)-6-((2S,5S)-5-ethylpyrrolidin-2-yl)-4-(trifluoromethyl)isoindolin-1-one] yielded a half-maximal inhibitory concentration (IC50) against Cbl-b of 54 nM. Besides, at c-Cbl, the half-inhibitory concentration (IC50) stood at 69 nM and the “(fold-selectivity)” value is “(1.3x)”.
For `CCNc1cc(C2(Cc3nncn3C)COC2)cc(N2Cc3c(cc(CNC4(C)CCC4)cc3C(F)(F)F)C2=O)n1` [Compound 290, 2-(6-(ethylamino)-4-(3-((4-methyl-4H-1,2,4-triazol-3-yl)methyl)oxetan-3-yl)pyridin-2-yl)-6-(((1-methylcyclobutyl)amino)methyl)-4-(trifluoromethyl)isoindolin-1-one], in that order: 10 nM, 5.4 nM and “(0.54x)”.
The like results for `CC(C)CNCc1cc2c(c(C(F)(F)F)c1)CN(c1cccc(C3([C@H](F)c4nncn4C)CC(F)(F)C3)c1)C2=O` [Compound 452, (S)-2-(3-(3,3-difluoro-1-(fluoro(4-methyl-4H-1,2,4-triazol-3-yl)methyl)cyclobutyl)phenyl)-6-((isobutylamino)methyl)-4-(trifluoromethyl)isoindolin-1-one] were, in that order, 12 nM, 9.1 nM and “(0.78x)”.
The like results for `CCn1cnnc1C(F)C1(c2cccc(N3Cc4c(cc(CN5CCN(C)C[C@@H]5C(C)C)cc4C(F)(F)F)C3=O)c2)CC(F)(F)C1` (stereo partly drawn) [Compound 485, 2-(3-(1-((4-ethyl-4H-1,2,4-triazol-3-yl)fluoromethyl)-3,3-difluorocyclobutyl)phenyl)-6-(((S)-2-isopropyl-4-methylpiperazin-1-yl)methyl)-4-(trifluoromethyl) isoindolin-1-one] were, in that order, 31 nM, 29 nM and “(0.92x)”.
`Cn1cnnc1CC1(c2cc(CC3CCCC3)nc(N3Cc4c(cccc4C(F)(F)F)C3=O)c2)COC1` [Compound 292, 2-(6-(cyclopentylmethyl)-4-(3-((4-methyl-4H-1,2,4-triazol-3-yl)methyl)oxetan-3-yl)pyridin-2-yl)-4-(trifluoromethyl)isoindolin-1-one] registered a 50% inhibitory concentration (IC50) against Cbl-b of 3400 nM. In addition, at c-Cbl, the IC50 is 5100 nM and the “(fold-selectivity)” value is on record as “(1.5x)”.
The like results for `Cn1cnnc1[C@@H](F)C1(c2cccc(N3Cc4c(cc(CN5CCC6(CC6)C5)cc4C(F)(F)F)C3=O)c2)CC1` [Compound 28, (S)-6-(5-azaspiro[2.4]heptan-5-ylmethyl)-2-(3-(1-(fluoro(4-methyl-4H-1,2,4-triazol-3-yl)methyl)cyclopropyl)phenyl)-4-(trifluoromethyl)isoindolin-1-one] were, in that order, 80 nM, 180 nM and 2.2x.
As for `CC(C)Nc1cc(C2(Cc3nncn3C)CCC2)cc(N2Cc3c(cc(CN4CCN(C)C[C@@H]4C(C)C)cc3C(F)(F)F)C2=O)n1` [Compound 409, (S)-6-((2-isopropyl-4-methylpiperazin-1-yl)methyl)-2-(6-(isopropylamino)-4-(1-((4-methyl-4H-1,2,4-triazol-3-yl)methyl)cyclobutyl)pyridin-2-yl)-4-(trifluoromethyl)isoindolin-1-one], the IC50 at Cbl-b was 12 nM; against c-Cbl, 5.9 nM. The “(fold-selectivity)” value at c-Cbl is listed as “(0.48x)”.
`Cn1cnnc1[C@@H](F)C1(c2cccc(N3Cc4c(cc(CN5CC(C(F)F)C5)cc4C(F)(F)F)C3=O)c2)COC1` [Compound 138, (S)-6-((3-(difluoromethyl)azetidin-1-yl)methyl)-2-(3-(3-(fluoro(4-methyl-4H-1,2,4-triazol-3-yl)methyl)oxetan-3-yl)phenyl)-4-(trifluoromethyl)isoindolin-1-one] yielded a half-maximal inhibitory concentration (IC50) against Cbl-b of 98 nM. Moreover, on c-Cbl, the IC50 amounted to 180 nM and the “(fold-selectivity)” value is 1.8x.
The like results for `CC[C@@H](C)Nc1cc(C2(Cc3nncn3C)COC2)cc(N2Cc3c(cccc3C(F)(F)F)C2=O)n1` [Compound 482, (R)-2-(6-(sec-butylamino)-4-(3-((4-methyl-4H-1,2,4-triazol-3-yl)methyl)oxetan-3-yl)pyridin-2-yl)-4-(trifluoromethyl)isoindolin-1-one] were, in that order, 210 nM, 410 nM and “(1.9x)”.
The like results for `CC(C)[C@H]1CNCCN1Cc1cc2c(c(C(F)(F)F)c1)CN(c1cccc(C3([C@H](F)c4nncn4C)CCC3)c1)C2=O` [Compound 217, 2-(3-(1-((S)-fluoro(4-methyl-4H-1,2,4-triazol-3-yl)methyl)cyclobutyl)phenyl)-6-(((S)-2-isopropylpiperazin-1-yl)methyl)-4-(trifluoromethyl)isoindolin-1-one] were, in that order, 17 nM, 20 nM and 1.2x.
For `Cn1cnnc1[C@@H](F)C1(c2cccc(N3Cc4c(cc(CN5CC6(CCC6)C5)cc4C(F)(F)F)C3=O)c2)COC1` [Compound 166, (S)-6-(2-azaspiro[3.3]heptan-2-ylmethyl)-2-(3-(3-(fluoro(4-methyl-4H-1,2,4-triazol-3-yl)methyl)oxetan-3-yl)phenyl)-4-(trifluoromethyl)isoindolin-1-one], in that order: 170 nM, 310 nM and 1.8x.
Turning to `CC(C)[C@@H]1CNCCN1Cc1cc2c(c(C(F)(F)F)c1)CN(c1cccc(C3([C@H](F)c4nncn4C)COC3)c1)C2=O` [Compound 95, 2-(3-(3-((S)-fluoro(4-methyl-4H-1,2,4-triazol-3-yl)methyl)oxetan-3-yl)phenyl)-6-(((R)-2-isopropylpiperazin-1-yl)methyl)-4-(trifluoromethyl)isoindolin-1-one], the IC50 against Cbl-b was 270 nM. Besides, on c-Cbl, the concentration for half-maximal inhibition (IC50) was 410 nM and the “(fold-selectivity)” value was found to be 1.5x.
On Cbl-b, `Cn1cnnc1CC1(c2cccc(N3Cc4c(cc(C5CCCN5)cc4C(F)(F)F)C3=O)c2)COC1.O=CO` (racemic) [Compound 11, 2-(3-(3-((4-methyl-4H-1,2,4-triazol-3-yl)methyl)oxetan-3-yl)phenyl)-6-(pyrrolidin-2-yl)-4-(trifluoromethyl)isoindolin-1-one formate] gave a 50% inhibitory concentration (IC50) of 420 nM. For the same compound, on c-Cbl, the concentration for half-maximal inhibition (IC50) worked out at 620 nM and the “(fold-selectivity)” value was 1.5x.
In the case of `CCOc1cc([C@H](C)Cc2nncn2C)cc(N2Cc3c(cc(CN4CCC5(CC5)C4)cc3C(F)(F)F)C2=O)n1` [Compound 56, (R)-6-((5-azaspiro[2.4]heptan-5-yl)methyl)-2-(6-ethoxy-4-(1-(4-methyl-4H-1,2,4-triazol-3-yl)propan-2-yl)pyridin-2-yl)-4-(trifluoromethyl)isoindolin-1-one formate], the IC50 on Cbl-b was found to be 16 nM; against c-Cbl, 22 nM.
In turn, `CC(C)[C@H]1CN(C)CCN1Cc1cc2c(c(C(F)(F)F)c1)CN(c1cc(C3([C@@H](F)c4nncn4C)CCC3)cc(NCC3CC3)n1)C2=O` [Compound 278, 2-(6-((cyclopropylmethyl)amino)-4-(1-((R)-fluoro(4-methy-4H-1,2,4-triazol-3-yl)methyl)cyclobutyl)pyridin-2-yl)-6-(((S)-2-isopropyl-4-methylpiperazin-1-yl)methyl)-4-(trifluoromethyl)isoindolin-1-one] returned an IC50 against Cbl-b of 12 nM. At c-Cbl, the IC50 is 15 nM and the “(fold-selectivity)” value is recorded as “(1.2x)”.
In turn, `Cn1cnnc1CC1(c2cccc(N3Cc4c(cc(CNC5(C)CCC5)cc4C(F)(F)F)C3=O)c2)CC(F)(F)C1` [Compound 232, 2-(3-(3,3-difluoro-1-((4-methyl-4H-1,2,4-triazol-3-yl)methyl)-cyclobutyl)phenyl)-6-(((1-methylcyclobutyl)amino)methyl)-4-(trifluoromethyl)isoindolin-1-one] yielded a half-maximal inhibitory concentration (IC50) against Cbl-b of 11 nM. On c-Cbl, the IC50 was 8 nM and the “(fold-selectivity)” value is on record as “(0.80x)”.
On to `CN1CCN(Cc2cc3c(c(C(F)(F)F)c2)CN(c2cccc(C4(Cc5nncn5C)CC(F)(F)C4)c2)C3=O)CC1` [Compound 411, 2-(3-(3,3-difluoro-1-((4-methyl-4H-1,2,4-triazol-3-yl)methyl)cyclobutyl)phenyl)-6-((4-methylpiperazin-1-yl)methyl)-4-(trifluoromethyl)isoindolin-1-one], for which the IC50 against Cbl-b amounted to 48 nM. For the same compound, on c-Cbl, the IC50 stood at 43 nM and the “(fold-selectivity)” value is reported as “(0.88x)”.
On to `Cn1cnnc1[C@@H](F)C1(c2cccc(N3Cc4c(cc(CN5CC(C)(O)C5)cc4C(F)(F)F)C3=O)c2)COC1` [Compound 162, (S)-2-(3-(3-(fluoro(4-methyl-4H-1,2,4-triazol-3-yl)methyl)oxetan-3-yl)phenyl)-6-((3-hydroxy-3-methylazetidin-1-yl)methyl)-4-(trifluoromethyl)isoindolin-1-one], for which 190 nM corresponded to half-maximal inhibition against Cbl-b (IC50). Further, on c-Cbl, the IC50 was found to be 330 nM and the “(fold-selectivity)” value is recorded as 1.7x.

The values are drawn from patent US20250230147A1, “LACTAMS AS CBL-B INHIBITORS” (Genentech, Inc., priority 2021, published 2025).
